The source of these data is a melting point compilation (Tetko et al.; mined from patent text by program, amines drawn as free bases though some values may be those of a salt).

On to `CC(C)(C)c1cc(C2=NOC(CC(=O)Nc3ccc([N+](=O)[O-])cc3)C2)cc(C(C)(C)C)c1O` (stereo not given), for which the melting point (usually the temperature of the solid-liquid transition) was 149 to 151 °C.

Consider `Oc1c(Br)cnc2ccccc12`, for which the melting point is 286 to 287 °C.

As to `O=C(NCCCCCCCCCCCO[N+](=O)[O-])c1ccc(N2CCNCC2)nc1`, the melting point was 78 to 80 °C.

`Clc1ccc(CCOc2ncnc3ncccc23)cc1` gave a melting point of 126 to 128 °C.

`COc1cc2ncnc(N3c4ccccc4CC3CO)c2cc1OC` (stereo not given): the melting point fell in the range of 146 to 147 °C.

Turning to `CN(C(=O)OC(C)(C)C)c1cc(Oc2ccc(C#N)cc2)ccc1[N+](=O)[O-]`, the melting point lay in the range of 141 to 143 °C.

Molecule `Cc1cccc(C(=O)Nc2cn(C3CCCCO3)nc2C(=O)NCC(F)(F)F)n1` (stereo not given) came in with a melting point of 184 to 185 °C.

With `C[C@@H]1NC(=O)O[C@H]1c1ccc(C(C)(C)C)cc1`, the melting point was in the range of 199 to 200 °C.

Consider `CS(=O)(=O)c1cccc(NC(=O)c2cnn3c(C(F)(F)F)cc(-c4ccc(OC(F)(F)F)cc4)nc23)c1`, for which the melting point worked out at 245 °C.

For `CCOc1cc(C(=O)c2ccccn2)ccc1OCCOc1c(CC(=O)O)cccc1OC`, the melting point was in the range of 184 to 186 °C.

Molecule `O=C1c2ccccc2C(=O)N1CCCCSc1nccc(NC(=S)NCC(F)(F)F)n1` returned a melting point of 201 to 202 °C.

As for `O=C1O[C@@H](Cn2ccnn2)CN1c1ccc(-c2ccc(C3=NOC(C4(O)CCCC4)C3)nc2)c(F)c1` (stereo not given in full), the melting point worked out at 225 °C.

For `COc1ccc(S(=O)(=O)Nc2ccccc2Nc2ccncc2)cc1`, the melting point lay within 185 to 187 °C.

Regarding `Cc1ccc(C2=NC[C@@H](O)[C@H](c3ccccc3)O2)cc1` (racemic), the melting point amounted to 168 °C.

`CC(C)P1(=O)c2ccccc2CN1Cc1ccccc1` (stereo not given): the melting point lay within 145 to 147 °C.

With `CC1CCCC(C)N1S(=O)(=O)N[C@@H](Cc1ccc(Nc2nccc3cnccc23)cc1)C(=O)O` (stereo not given in full), the melting point is 204 °C.

With `Nn1c(C2CC2)n[nH]c1=O`, the melting point was found to be 183 °C.

`CCOC(=O)c1cn(C2Cc3cc(F)ccc3C2=O)c(C(=O)OCC)n1` (stereo not given) displayed a melting point of 138 °C.

For the molecule `CN(OCc1nc2c(N)nc3ccccc3c2n1CC(C)(C)O)C(N)=O`, the melting point lay in the range of 206 to 207 °C.

Molecule `CC1(C)CC(=O)c2c(NCCCn3ccnc3)sc(-c3cc[nH]n3)c2C1` had a melting point of 85 °C.

Take `c1cc(Nc2ccc3[nH]ncc3c2)ccn1`: the melting point was 189 to 190 °C.

Take `CC(C)[C@@H](CO)C[C@H](O)[C@H](CC1CCCCC1)NC(=O)OCc1ccccc1`: the melting point was in the range of 113 to 114 °C.

The molecule `Oc1nnc2ccccc2n1` had a melting point of 204 to 206 °C.

The molecule `NNc1ccnc2c(NC(=O)c3c(Cl)cccc3Cl)cc(C(F)(F)F)cc12` registered a melting point of 228 to 232 °C.

For `CC(C)(C)C1c2ccccc2-c2cc(Br)ccc2N1S(=O)(=O)c1ccc(O)cc1` (stereo not given), the melting point lay within 245 to 247 °C.

With `O=C(C1CCN(c2c(Cl)cncc2Cl)CC1)N1CCOCC1`, the melting point lay in the range of 172 to 174 °C.

On to `Nc1ccc2[nH]c(CO)cc2c1`, for which the melting point lay within 159 to 160 °C.

Turning to `NCc1ccn(-c2cc3c(cc2[N+](=O)[O-])[nH]c(=O)c(=O)n3C2CCCCC2)c1`, the melting point was greater than 300 °C.

For the molecule `CNC(=O)N(C)C(CCSC)P(=O)(O)O` (stereo not given), the melting point lay in the range of 164 to 167 °C.

On to `Cc1cccc(NC(=O)c2cc(C#N)cc(C)n2)c1`, for which the melting point amounted to 160 °C.

Molecule `CCOc1ccc2c(c1)C(=O)N(CCCCBr)S2(=O)=O` came in with a melting point of 105 to 108 °C.

In turn, `CC(=O)N(CC(=O)O)C[C@H]1O[C@H](c2ccccc2Cl)c2cc(Cl)ccc2N(Cc2ccccc2)C1=O` (relative stereo) gave a melting point of 143 to 145 °C.

Molecule `O=C(Nc1cc(F)cc(F)c1)Oc1ccccc1` had a melting point of 123 to 125 °C.

For the molecule `Cc1oc2c(C)c(C)c(N3C(=O)c4ccccc4C3=O)c(C)c2c1-c1ccc(C(C)C)cc1`, the melting point is 232 to 234 °C.

`Nc1c(-c2cc(Cl)ccc2O)c2c(C(F)(F)F)cc(C(F)(F)F)cc2[nH]c1=O` registered a melting point of 230 to 233 °C.
